Laboratory results: patent US10041105B2, “Methods and devices for detection of resistance to an enzyme inhibitor” (priority 2014, dated 2018)

Columns and labels:
[1] = system: beta lactamase of patient isolate colony; assay: Clavulanate resistance using a single bacterial colony
Experimental: (§6) As described in EXAMPLE 7, the assay consisted of two reagents, Reagent Mix I and Reagent Mix II, where Reagent Mix I contained one master mix without clavulanate while Reagent Mix II contained a master mix with clavulanate. In this example, reagent mixes equivalent to 0.25 mL of the master mixes were lyophilized in test tubes.
(§7) Patient samples were cultured overnight on an agar plate. A single colony was suspended in 2.5 mL sample buffer as described in EXAMPLE 7, of which 0.25 mL was added to Reagent Mixes I and II vials. After incubation at room temperature for 15 min, the reagent vials were inserted into a luminometer for signal measurement.

[2] = system: beta lactamase of patient isolate colony; assay: as above; remark: listed apart in the source
Experimental: as §6, §7

[3] = system: beta lactamase of patient isolate colony; assay: as above; remark: listed apart in the source
Experimental: as §6, §7

[4] = system: beta lactamase of patient isolate colony; assay: as above; remark: listed apart in the source
Experimental: as §6, §7

SHV-2 beta lactamase = SHV-2 beta lactamase (Escherichia coli, UniProt P0A9Z7); format: biochemical
Sequence of SHV-2 beta lactamase (P0A9Z7 22-286): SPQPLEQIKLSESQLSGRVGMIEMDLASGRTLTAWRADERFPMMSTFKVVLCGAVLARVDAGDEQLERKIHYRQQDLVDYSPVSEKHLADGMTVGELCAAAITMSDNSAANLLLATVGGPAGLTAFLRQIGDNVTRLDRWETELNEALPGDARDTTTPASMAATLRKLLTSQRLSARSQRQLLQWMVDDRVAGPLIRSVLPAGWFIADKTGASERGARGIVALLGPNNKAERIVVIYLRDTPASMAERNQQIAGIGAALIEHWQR
Experimental: (§1) The reagent mix was prepared as a 2× concentrated solution. The 2× concentrated reagent mix contained 50 mM HEPES (pH 7.0 to 7.2), 0.2 mM ZnCl2, 8 mM ATP, 10 mM DTT, 0.1 mM Coenzyme A, 5 micrograms/mL luciferase, 0.01 mM Cephalosporin-O-Luciferin, 0.1 mg/mL BSA, 8 mM CaCl2, 30 mM MgCl2, and 1% Triton X-100. Cephalosporin-O-Luciferin was used as a beta lactamase substrate. This substrate was synthesized and purified according to a procedure published in a scientific article (Angew. Chem. Int. Ed. 2007 Vol. 46, pp. 7031-7034), which is cited here solely as a reference.
(§2) Genes encoding five species of beta lactamase were synthesized and cloned into an E. coli expression vector. The E. coli cells transformed with the expression vector containing the gene encoding a beta lactamase was induced to express the enzyme. The cells were then pelleted, suspended in a sample buffer (Fisher Scientific Cat. No. 90084) and sonicated to lyse the cells.
(§3) 2× concentrated reagent mixes were prepared. The 2× reagent mix without a beta lactamase inhibitor or antibiotic (Reagent Mix I) was prepared according to the composition provided in Example 6. The 2× concentrated reagent mix containing a beta lactamase inhibitor or imipenem (Reagent Mix IIb) was prepared by supplementing the Reagent Mix I with 64 micrograms/mL of clavulanate (Reagent Mix IIa) or 64 micrograms/mL of imipenem (Reagent Mix IIb).
(§4) Reactions were carried out by diluting 50 microliters of 2× reagent mixes into 45 microliters of deionized water, followed by addition of 5 microliters of cell lysate. […] Light signal was measured using a luminometer after 15 min incubation at room temperature. The signal in Reagent Mix I was used to detect the presence of beta lactamase in the sample by comparing the signal in the reaction to that of negative controls while the signal ratio was used to determine the resistance of the beta lactamase to clavulanate or imipenem.
(§5) In this example, the signal ratios were expressed as R-Factor values, which were calculated as follows: R-Factor=10×(Reagent Mix II Signal÷Reagent Mix I Signal)

p99 beta lactamase = p99 beta lactamase (Enterobacter cloacae, UniProt P05364); format: biochemical
Sequence of p99 beta lactamase (P05364 21-381): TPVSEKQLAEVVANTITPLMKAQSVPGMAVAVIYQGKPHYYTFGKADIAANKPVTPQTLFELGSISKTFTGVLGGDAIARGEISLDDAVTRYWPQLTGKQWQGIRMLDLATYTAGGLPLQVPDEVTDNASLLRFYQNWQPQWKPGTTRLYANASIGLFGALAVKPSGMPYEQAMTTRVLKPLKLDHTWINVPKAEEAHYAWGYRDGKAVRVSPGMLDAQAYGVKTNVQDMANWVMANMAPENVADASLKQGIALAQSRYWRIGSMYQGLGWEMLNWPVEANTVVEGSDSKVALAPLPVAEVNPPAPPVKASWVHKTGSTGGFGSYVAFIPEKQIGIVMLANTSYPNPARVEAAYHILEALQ
Experimental: as §1, §2, §3, §4, §5

[5] = system: SHV-2 beta lactamase (Escherichia coli); format: biochemical
Sequence of SHV-2 beta lactamase (Escherichia coli) (P0A9Z7 22-286): as the sequence (P0A9Z7 22-286) above
Experimental: as §1, §2, §3, §4, §5

TEM-2 beta lactamase = TEM-2 beta lactamase (Escherichia coli, UniProt P62593, Q37K); assay: Beta lactamase luminescent assay with inhibitor reagent mixes; format: biochemical
Experimental: as §1, §2, §3, §4, §5

[6] = molecular target: New Deli Metallo-beta lactamase (NDM-2) (Klebsiella pneumoniae, UniProt C7C422, P28A); assay: as above; format: biochemical; conditions: 64 micrograms/mL in 2× mix, lysate dilution 1:2
Sequence of New Deli Metallo-beta lactamase (NDM-2) (C7C422 29-270 P28A (numbered from the first residue shown)): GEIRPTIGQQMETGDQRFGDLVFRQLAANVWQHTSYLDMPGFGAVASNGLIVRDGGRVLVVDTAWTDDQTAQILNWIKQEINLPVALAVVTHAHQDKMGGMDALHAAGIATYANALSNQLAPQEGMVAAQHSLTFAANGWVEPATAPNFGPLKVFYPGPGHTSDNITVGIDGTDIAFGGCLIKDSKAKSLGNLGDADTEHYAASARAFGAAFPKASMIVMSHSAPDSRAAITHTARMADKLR
Experimental: as §1, §2, §3, §4, §5

KPC-2 beta lactamase = KPC-2 beta lactamase (Klebsiella pneumoniae, UniProt Q9F663); assay: as above; format: biochemical; conditions: 64 micrograms/mL in 2× mix, lysate dilution 1:10
Sequence of KPC-2 beta lactamase (Q9F663 25-293 limits assumed): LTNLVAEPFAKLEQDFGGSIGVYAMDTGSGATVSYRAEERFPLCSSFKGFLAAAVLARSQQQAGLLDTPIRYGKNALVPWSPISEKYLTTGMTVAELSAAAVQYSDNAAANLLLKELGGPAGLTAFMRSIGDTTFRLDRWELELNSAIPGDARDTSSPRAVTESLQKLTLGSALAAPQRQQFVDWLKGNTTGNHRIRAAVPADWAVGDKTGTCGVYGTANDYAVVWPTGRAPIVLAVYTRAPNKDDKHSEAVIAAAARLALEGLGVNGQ
Experimental: as §1, §2, §3, §4, §5

**Q.** What does the source list for `O=C(O)[C@H]1/C(=C/CO)O[C@@H]2CC(=O)N21` [Clavulanate, clavulanate]?
**A.** Interpretation ([1]; No. 5, Sample ID B612): susceptible to CA (CA (clavulanate) resistance cutoff R-Factor value: 2.50); R-Factor ([1]; No. 5, Sample ID B612): 0.27; Interpretation ([1]; No. 6, Sample ID B616): susceptible to CA (CA (clavulanate) resistance cutoff R-Factor value: 2.50); R-Factor ([1]; No. 6, Sample ID B616): 0.13; Interpretation ([2]; No. 1, Sample ID 1845): susceptible to CA (CA (clavulanate) resistance cutoff R-Factor value: 2.50); R-Factor ([2]; No. 1, Sample ID 1845): 0.07; Interpretation ([2]; No. 2, Sample ID 1847): susceptible to CA (CA (clavulanate) resistance cutoff R-Factor value: 2.50); R-Factor ([2]; No. 2, Sample ID 1847): 0.15; Interpretation ([2]; No. 20, Sample ID B650): susceptible to CA (CA (clavulanate) resistance cutoff R-Factor value: 2.50); R-Factor ([2]; No. 20, Sample ID B650): 0.11; Interpretation ([2]; No. 21, Sample ID B671): resistant to CA (CA (clavulanate) resistance cutoff R-Factor value: 2.50); R-Factor ([2]; No. 21, Sample ID B671): 4.12; Interpretation ([3]; No. 3, Sample ID 1820): resistant to CA (CA (clavulanate) resistance cutoff R-Factor value: 2.50); R-Factor ([3]; No. 3, Sample ID 1820): 3.67; Interpretation ([3]; No. 7, Sample ID 1789): susceptible to CA (CA (clavulanate) resistance cutoff R-Factor value: 2.50); R-Factor ([3]; No. 7, Sample ID 1789): 1.14; Interpretation ([3]; No. 8, Sample ID 1800): resistant to CA (CA (clavulanate) resistance cutoff R-Factor value: 2.50); R-Factor ([3]; No. 8, Sample ID 1800): 11.13; Interpretation ([3]; No. 13, Sample ID 1962-2): resistant to CA (CA (clavulanate) resistance cutoff R-Factor value: 2.50); R-Factor ([3]; No. 13, Sample ID 1962-2): 15.47; Interpretation ([3]; No. 14, Sample ID 1963): resistant to CA (CA (clavulanate) resistance cutoff R-Factor value: 2.50); R-Factor ([3]; No. 14, Sample ID 1963): 19.95; Interpretation ([4]; No. 17, Sample ID 2015): susceptible to CA (CA (clavulanate) resistance cutoff R-Factor value: 2.50); R-Factor ([4]; No. 17, Sample ID 2015): 1.74; Interpretation ([4]; No. 18, Sample ID 2022-1): susceptible to CA (CA (clavulanate) resistance cutoff R-Factor value: 2.50); R-Factor ([4]; No. 18, Sample ID 2022-1): 1.31; S/N (Signal to Noise Ratio) in inhibitor-containing reagent mix (SHV-2 beta lactamase): 1.00; resistance of the beta lactamase to the substance (SHV-2 beta lactamase): susceptible; S/N (Signal to Noise Ratio) in inhibitor-containing reagent mix (p99 beta lactamase): 48.00; R-Factor [5]: 0.23; R-Factor (TEM-2 beta lactamase; 64 micrograms/mL in 2× mix, lysate undiluted): 1.18; S/N (Signal to Noise Ratio) in inhibitor-containing reagent mix (TEM-2 beta lactamase; 64 micrograms/mL in 2× mix, lysate undiluted, 15 min): 5.00; resistance of the beta lactamase to the substance (TEM-2 beta lactamase; judged from R-Factor): susceptible; R-Factor [6]: 6.02; S/N (Signal to Noise Ratio) in inhibitor-containing reagent mix ([6]; 15 min): 13.00; R-Factor ([6]; listed as clavulanate): high; R-Factor (KPC-2 beta lactamase): 8.94; S/N (Signal to Noise Ratio) in inhibitor-containing reagent mix (KPC-2 beta lactamase; 15 min): 40.00; R-Factor (KPC-2 beta lactamase; listed as clavulanate): high
